From patent publication US20040191843A1, “Cell-killing molecules and methods of use thereof” (Palo Alto Institute of Molecular Medicine, priority 2003, published 2004)
“Also recorded” adds a separate entry of the source. Read-outs that look alike come from different tables or passages of the source.

Tests used:
HepG2 = test: 48 h MTT dye reduction assay; assay type: cell-based; details: Homo sapiens
Excerpt: (§1) The cytotoxic activity of rADF-Ant was compared to several chemotherapeutic drugs on a panel of three HCC cell lines.
(§2) Without limiting the invention to any particular mechanism, another possible mechanism of resistance is expression of the multidrug resistance associated protein (MRP). This protein is thought to exert a function similar to the p-glycoprotein, and is expressed at high levels in the HepG2 and SK Hep-1 cell lines (Takeuchi, et al., 1999, J Gastroenterol 34:351-358). Increased expression of thioredoxin, which functions as a cellular defense mechanism against oxidative stress, may also protect HCC's from some chemotherapeutic agents (Kawahara, et al., 1996, Cancer Res 56:5330-5333). Expression of different xenobiotic enzymes (e.g. cytochrome P-450 and glutathione S-transferase) may also contribute to the intrinsic drug resistance of HCC (Murray, et al., 1993, Cancer 71:36-43). Additional studies explored whether the high intrinsic levels of drug resistance in the HCC lines can be even further augmented by adherence to ECM protein. Overexpression of b1 integrin and its role in the progression of HCC has been reported (Patriarca, et al., 1993, J Pathol 171:5-11). Overexpression of b1-integrin in several HCC lines (including HepG2) protected them from chemotherapeutic drug-induced apoptosis via a MAP kinase-dependent pathway (Zhang, et al., 2002, Cancer 95:896-906). Knockout of a6b1-integrin expression reversed the transformed phenotype of HepG2 cells (Carloni et al., 1998, Gastroenterology. 115:433-442). […] These properties of HCCs may contribute to the marked changes in amount and distribution of ECM components found in the stroma of HCC as compared to normal liver (Jaskiewicz, et al., 1993, Anticancer Res 13:2229-2238). Thus, the combination of increased expression of integrins in HCCs as well as abnormalities in the surrounding ECM may create an environment that both promotes tumor growth and inhibits apoptosis. Therefore, the inventors tested HepG2 and Hep3B for drug sensitivity when assayed on plates coated with BSA as a control, or on FN as described above for U937 cells.

Hep3B = test: 48 h MTT dye reduction assay; assay type: cell-based; details: Homo sapiens
Excerpt: as §1, §2

SK Hep-1 = test: 48 h MTT dye reduction assay; assay type: cell-based; details: Homo sapiens, SK-HEP1, read-out: IC50 Values ± SEM (n)
Excerpt: as §1

MES-SA (parental) = test: 48 h MTT dye reduction assay; assay type: cell-based; details: Homo sapiens
Excerpt: (§3) One of the most frequently reported alterations associated with multidrug resistance is increased expression of the 170 kDa membrane protein called P-glycoprotein encoded by the MDR1 gene. It functions as an energy-dependent drug efflux pump that reduces intracellular drug accumulation, thereby causing resistance to many structurally unrelated drugs (Roninson, et al., 1986, Proc Natl Acad Sci 83:4538-4542). To determine if MDR1 overexpressing cells were sensitive to rADF, the inventors tested the parental drug-sensitive uterine sarcoma, MES-SA, compared to a variant selected by culturing in doxorubicin, MES-SA/Dx5, described previously (Chen et al., 1997).

U937 cells [1] = test: DNA fragmentation in whole cells (release of 3H-labeled DNA fragments, 4 h); assay type: cell-based, human; details: for IC50: Homo sapiens, U-937, 4 h
Description: (§4) DNA fragmentation in whole cells or normal nuclei isolated from U937 or MCF-7 cells was assayed by release of (3H)thymidine-labeled DNA fragments as described in detail previously (Wright et al. (1994) J. Exp. Med. 180, 2113-2123). DNA fragmentation induced by rADF treatment of isolated nuclei for four h was analyzed by agarose electrophoresis as described in detail previously (Wright et al. (1994) supra). In four h assays using isolated nuclei, the buffer was supplemented with an ATP regenerating system (2 mM ATP, 10 mM phosphocreatine, and 50 μg/ml creatine kinase).

HL-60 Bcl-2 = test: as above; assay type: cell-based; details: Homo sapiens
U9-NAD - = test: as above; assay type: cell-based; details: Homo sapiens, read-out: IC50 Value (minimal concentration to cause 50% DNA fragmentation)
Description: as §4
(§5) Another mechanism whereby cancer cells may resist apoptosis is through overexpression of heat shock (HS) proteins which have been found at high levels in most tumor cell biopsies (Jaattela, et al., 1999, Exp Cell Res 248:30-43). […] We have studied the mechanisms of apoptosis resistance using several variants derived from the U937 cell line. Variants generated by prolonged growth in the presence of TNF (U9-TR) or by nutritional depletion of intracellular NAD content (U9-NAD-) have been described in the literature previously (Wright, et al., 1992, Cancer Immunol Immunother 34:399-406; Wright, et al., 1996b, J. Exp. Med. 183: 463-477). Both of these variants were resistant to apoptosis induced by diverse agents, such as chemotherapeutic drugs, UV light, and TNF.

U9-TR = test: as above; assay type: cell-based, human; details: Homo sapiens; U9-TR; 4 hr; read-out: IC50 Value (minimal concentration to cause 50% DNA fragmentation)
Description: as §4, §5

U937 cells [2] = test: Viability by trypan blue exclusion after 4 h treatment; assay type: cell-based, human; details: for IC50: Homo sapiens, U-937, trypan blue, 4 h
HL-60 neo = test: DNA fragmentation in whole cells (release of 3H-labeled DNA fragments, 4 h); assay type: cell-based; details: Homo sapiens
MES-SA/Dx5 (MDR1 high) = test: cells; details: 48 h, read-out: IC50 Values
Excerpt: as §3

isolated U937 nuclei = test: DNA fragmentation in isolated nuclei (release of 3H-labeled DNA fragments; agarose gel); assay type: biochemical, human
Description: as §4
ADF was purified from 2.9 mg of pig heart mitochondrial MDH obtained from Worthington Enzymes, New Jersey. Protein was fractionated by gel filtration on a Tosohaas G2000SWXL 7.8 mm×300 mm HPLC column, and each fraction tested for DNA fragmentation in isolated U937 nuclei (ADF activity) and for MDH enzyme activity. Active fractions were pooled and applied to a reverse phase C4 Brownlee 2.1 mm×220 mm column equilibrated in H2O+0.0075% trifluoroacetic acid pH 6.5, and eluted with a linear gradient to 40% acetonitrile.
In preliminary studies, the inventors observed that supernatants of normal mitochondria derived from cultured cells or freshly isolated liver cells incubated in vitro contained activity that induced internucleosomal DNA cleavage in isolated U937 nuclei. […] To ascertain that the DNA fragmenting activity of MDH was not due to a contaminating nuclease, the inventors purified the commercial enzyme to determine the source of the ADF activity.
Therefore, it is likely that ADF directly or indirectly activates endonucleases present in isolated nuclei.

naked DNA = test: DNase assay on naked DNA substrate (rADF alone or extracts of rADF-treated U937 nuclei); assay type: biochemical, human
isolated MCF-7 nuclei = test: DNA fragmentation in isolated nuclei (release of 3H-labeled DNA fragments); assay type: biochemical, human; details: nuclei from MCF-7 cells (no caspase 3); four h assay
ICAD/DFF45 = test: Western blot for ICAD cleavage in rADF-treated nuclei; assay type: biochemical, human; details: U937 nuclei treated with rADF
[3] = HepG2, 48 h, HepG2 (BSA) plate coating, read-out: IC50 Values
[4] = HepG2, 48 h, HepG2 (FN) plate coating, read-out: IC50 Values
[5] = HepG2, 48 h, HepG2, read-out: IC50 Values ± SEM (n)
[6] = Hep3B (BSA) plate coating, read-out: IC50 Values
[7] = Hep3B (FN) plate coating, read-out: IC50 Values
[8] = read-out: IC50 Values ± SEM (n)

O=c1[nH]cc(F)c(=O)[nH]1 [5-FU, 5-fluorouracil]
IC50 (HepG2; [3]): 515 µM
IC50 (HepG2; [4]): > 2 µM
IC50 (HepG2; [5]): 620 µM
IC50 (Hep3B; [6]): 490 µM
IC50 (Hep3B; [7]): > 2 µM
IC50 (Hep3B; [8]): 410 µM
IC50 (SK Hep-1): 203 µM

COc1cccc2c1C(=O)c1c(O)c3c(c(O)c1C2=O)C[C@@](O)(C(=O)CO)C[C@@H]3O[C@H]1C[C@H](N)[C@H](O)[C@H](C)O1 [Dox, doxorubicin]
IC50 (HepG2; [3]): 104 µM
IC50 (HepG2; [4]): > 400 µM
IC50 (HepG2; [5]): 122 µM
IC50 (Hep3B; [6]): 86 µM
IC50 (Hep3B; [7]): > 400 µM
IC50 (Hep3B; [8]): 80 µM
IC50 (SK Hep-1): 73 µM

COc1cc([C@@H]2c3cc4c(cc3[C@@H](O[C@@H]3O[C@@H]5CO[C@@H](C)O[C@H]5[C@H](O)[C@H]3O)[C@H]3COC(=O)[C@H]23)OCO4)cc(OC)c1O [Etoposide, etoposide]
IC50 (MES-SA (parental)): 59 µM
IC50 (U937 cells [1]; U937, 4 hr, read-out: IC50 Value (minimal concentration to cause 50% DNA fragmentation)): 12 µM
IC50 (U937 cells [1]; U937 on BSA, 4 h DNA fragmentation, read-out: IC50 Values): 4 µM
IC50 (U937 cells [1]; U937 on FN, 4 h DNA fragmentation, read-out: IC50 Values): 15 µM
fold higher concentration to induce 50% DNA fragmentation (U937 cells [1]; cells adhering to FN vs plated on BSA): about 5 fold
IC50 (HL-60 Bcl-2): 380 µM
IC50 (U9-NAD -): > 500 µM
IC50 (U9-TR): > 500 µM
IC50 (U937 cells [2]; U937 + PMA (10 nM, 3 days)): 510 µM
IC50 (U937 cells [2]; U937): 4 µM
factor of resistance of PMA-treated cells (U937 cells [2]; PMA-treated vs normal U937): 127 fold
IC50 (HL-60 neo): 26 µM
IC50 (HepG2; HepG2 (BSA) plate coating, read-out: IC50 Values): 35 µM
IC50 (HepG2; HepG2, read-out: IC50 Values ± SEM (n)): 231 µM
IC50 (Hep3B; [6]): 210 µM
IC50 (Hep3B; [7]): 840 µM
IC50 (Hep3B; [8]): 95 µM
IC50 (MES-SA/Dx5 (MDR1 high)): > 500 µM
IC50 (SK Hep-1): 58 µM

B1: rADF: recombinant human activator of DNA fragmentation, 9 kDa C-terminal fragment of mitochondrial MDH, SEQ ID NO:7 (protein, listed as Homo sapiens)
chain: KAKAGAGSATLSMAYAGARFVFSLVDAMNGKEGVVECSFVKSQETECTYFSTPLLLGKKGIEKNLGIGKVSSFEEKMISDAIPELKASIKKGEDFVKTLK
DNA fragmentation activity at the same concentrations (U937 cells [1]; 2.25-9 nM, 4 h assay): little activity
internucleosomal DNA fragmentation (isolated U937 nuclei; agarose gel, 4 h): induced internucleosomal DNA fragmentation
activation of nuclear DNA fragmentation (isolated U937 nuclei; nuclei from U937 cells, four h assay): dose-dependent activation
DNase activity on naked DNA of extracts from treated nuclei (naked DNA; U937 nuclei incubated with rADF 20 h): digested naked DNA
digestion of naked DNA by rADF itself (naked DNA; rADF without nuclei): did not digest naked DNA; also recorded: little or no activity
activation of nuclear DNA fragmentation (isolated MCF-7 nuclei): dose-dependent activation
ICAD/DFF45 cleavage (ICAD/DFF45): not cleaved

B2: MDH derived from porcine heart mitochondria: commercial preparation of mitochondrial malate dehydrogenase (Worthington Enzymes) (protein, UniProt P00346 25-338, looked up)
Malate dehydrogenase, …: AKVAVLGASGGIGQPLSLLLKNSPLVSRLTLYDIAHTPGVAADLSHIETRATVKGYLGPEQLPDCLKGCDVVVIPAGVPRKPGMTRDDLFNTNATIVATLTAACAQHCPDAMICIISNPVNSTIPITAEVFKKHGVYNPNKIFGVTTLDIVRANAFVAELKGLDPARVSVPVIGGHAGKTIIPLISQCTPKVDFPQDQLSTLTGRIQEAGTEVVKAKAGAGSATLSMAYAGARFVFSLVDAMNGKEGVVECSFVKSQETDCPYFSTPLLLGKKGIEKNLGIGKISPFEEKMIAEAIPELKASIKKGEEFVKNMK
concentrations dose-dependently inducing nuclear DNA fragmentation (isolated U937 nuclei; isolated nuclei): 2 to 10 µg/mL
